Laboratory results from patent publication US10519111B2, “UV absorbing compounds, compositions comprising same and uses thereof” (CORAL SUNSCREEN PTY LTD, priority 2013, dated 2019).
Where “and” joins values, the source holds several entries; their conditions need not be identical. Equal entries are not always repeated.

Assay: UV absorption properties (λmax, molar extinction coefficient ε, efficiency E 1%, 1 cm)
Format: physicochemical
Conditions: for ε (molar extinction coefficient): values in order of the λmax values; for ε value: unit inferred

| Structure (SMILES) | UV λmax | ε (molar extinction coefficient) | ε value [M⁻¹ cm⁻¹] |
| --- | --- | --- | --- |
| CC(C)CN1C=C(C(=O)/C=C/c2ccc(C(F)(F)F)cc2)C(C)(C)CC1 [Compound 33, (E)-1-(1-Isobutyl-4,4-dimethyl-1,4,5,6-tetrahydropyridin-3-yl)-3-(4-(trifluoromethyl)phenyl)prop-2-en-1-one] | 369 nm | 17000 M⁻¹ cm⁻¹ | – |
| COc1ccc(/C=C/C(=O)C2=CN(CC(C)C)CCC2(C)C)cc1 [Compound 34, (E)-1-(1-isobutyl-4,4-dimethyl-1,4,5,6-tetrahydropyridin-3-yl)-3-(4-methoxyphenyl)prop-2-en-1-one] | 364 nm | 16150 M⁻¹ cm⁻¹ | – |
| CC(C)CN1C=C(C(=O)/C=C/C=Cc2ccccc2)C(C)(C)CC1 [Compound 35, (2E, 4E/Z)-1-(1-isobutyl-4,4-dimethyl-1,4,5,6-tetrahydropyridin-3-yl)-5-phenylpenta-2,4-dien-1-one] | 318 nm and 370 nm | 14800 M⁻¹ cm⁻¹ and 13200 M⁻¹ cm⁻¹ | – |
| C=C(C)C(=O)C1=CN(CC(C)C)CCC1(C)C [Compound 36, 1-(1-Isobutyl-4,4-dimethyl-1,4,5,6-tetrahydropyridin-3-yl)methylprop-2-en-1-one] | 310 nm | 18950 M⁻¹ cm⁻¹ | – |
| C=C/C=C/C(=O)C1=CN(CC(C)C)CCC1(C)C [Compound 38, (2E/Z) 1-(1-isobutyl-4,4-dimethyl-1,4,5,6-tetrahydropyridin-3-yl)penta-2,4-dien-1-one] | 352 nm | 18000 M⁻¹ cm⁻¹ | – |
| CC(C)CN1C=C(C(=O)C(C#N)=C(c2ccccc2)c2ccccc2)C(C)(C)CC1 [Compound 39] | 297 nm and 317 nm | 15750 M⁻¹ cm⁻¹ and 16150 M⁻¹ cm⁻¹ | – |
| CC1(C)C=CN(c2ccccc2)CC1 [Compound 46, 4,4-dimethyl-1-phenyl-1,2,3,4-tetrahydropyridine] | 278 nm | 22550 M⁻¹ cm⁻¹ | – |
| CCC(=O)C1=CN(c2ccccc2)CCC1(C)C [Compound 47, 1-(4,4-dimethyl-1-phenyl-1,4,5,6-tetrahydropyridin-3-yl)propan-1-one] | 321 nm | 23000 M⁻¹ cm⁻¹ | – |
| C=CC(=O)C1=CN(c2ccccc2)CCC1(C)C [Compound 48, 1-(4,4-dimethyl-1-phenyl-1,4,5,6-tetrahydropyridin-3-yl)prop-2-en-1-one] | 346 nm | 21000 M⁻¹ cm⁻¹ | – |
| CC1(C)CCN(c2ccccc2)C=C1C(=O)c1ccc(Br)cc1 [Compound 49, (4-bromophenyl)(1-(phenyl)-4,4-dimethyl-1,4,5,6-tetrahydropyridin-3-yl)methanone] | 338 nm | 23300 M⁻¹ cm⁻¹ | – |
| CC1(C)C=CN(c2ccccc2)C=C1 [Compound 50, 4,4-dimethyl-1-phenyl-1,4-dihydropyridine] | 285 nm | 16000 M⁻¹ cm⁻¹ | – |
| COc1ccc(N2C=CC(C)(C)CC2)cc1 [Compound 51, 1-(4-methoxyphenyl)-4,4-dimethyl-1,2,3,4-tetrahydropyridine] | 278 nm | 22550 M⁻¹ cm⁻¹ | – |
| CCC(=O)C1=CN(c2ccc(OC)cc2)CCC1(C)C [Compound 52, 1-(1-(4-methoxyphenyl)-4,4-dimethyl-1,4,5,6-tetrahydropyridin-3-yl)propan-1-one] | 328 nm | 23500 M⁻¹ cm⁻¹ | – |
| C=CC(=O)C1=CN(c2ccc(OC)cc2)CCC1(C)C [Compound 53, 1-(1-(4-methoxyphenyl)-4,4-dimethyl-1,4,5,6-tetrahydropyridin-3-yl)prop-2-en-1-one] | 350 nm | 21500 M⁻¹ cm⁻¹ | – |
| COc1ccc(N2C=C(C(=O)c3ccc(F)cc3)C(C)(C)CC2)cc1 [Compound 54, (4-fluorophenyl)(1-(4-methoxyphenyl)-4,4-dimethyl-1,4,5,6-tetrahydropyridin-3-yl)methanone] | 341 nm | 19350 M⁻¹ cm⁻¹ | – |
| CCC(=O)C1=C(c2ccccc2)N(CC(C)C)CCC1(C)C [Compound 58, 1-(1-isobutyl-4,4-dimethyl-2-phenyl-1,4,5,6-tetrahydropyridin-3-yl)propan-1-one] | 338 nm | 8000 M⁻¹ cm⁻¹ | – |
| CCC(=O)O/C(=C\C1=CC(C)(C)CCN1CC(C)C)CC [Compound 60, 1-(1-isobutyl-4,4-dimethyl-1,4,5,6-tetrahydropyridin-2-yl)but-1-en-2-yl propionate] | 323 nm | 20000 M⁻¹ cm⁻¹ | – |

| Structure (SMILES) | UV λmax | ε (molar extinction coefficient) | ε value [M⁻¹ cm⁻¹] |
| --- | --- | --- | --- |
| CCC(=O)C1=CN(CC(C)C)C(=O)CC1(C)C [Compound 64, 1-isobutyl-4,4-dimethyl-5-propionyl-3,4-dihydropyridin-2(1H)-one] | 291 nm | – | – |
| CCC(=O)C1=CN(CC(C)C)C=CC1(C)C [Compound 65, 1-(1-isobutyl-4,4-dimethyl-1,4-dihydropyridin-3-yl)propan-1-one] | 366 nm | – | – |
| CC(C)CN1C=C(C(=O)CCC(=O)O)C(C)(C)CC1 [Compound 70, 4-(1-isobutyl-4,4-dimethyl-1,4,5,6-tetrahydropyridin-3-yl)-4-oxobutanoic acid] | 308 nm | – | – |
| CC(C)CN1C=C(C(=O)C(c2ccccc2)c2ccccc2)C(C)(C)CC1 [Compound 71, 1-(1-isobutyl-4,4-dimethyl-1,4,5,6-tetrahydropyridin-3-yl)-2,2-diphenylethanone] | 314 nm | 26000 M⁻¹ cm⁻¹ | – |
| CC(C)CN1C=C(S(=O)(=O)c2ccccc2)C(C)(C)CC1 [Compound 72, 1-Isobutyl-4,4-dimethyl-5-(phenylsulfonyl)-1,2,3,4-tetrahydropyridine] | 285 nm | – | – |
| Cc1cc(N2C=CC(C)(C)C=C2)n(C)n1 [Compound 152, 1-(1,3-dimethyl-1H-pyrazol-5-yl)-4,4-dimethyl-1,4-dihydropyridine] | 253 nm | 11371 M⁻¹ cm⁻¹ | – |
| C=CC(=O)C1=CN(C(C)(C)C)CCC1(C)C [Compound 154, 1-(1-(tert-butyl)-4,4-dimethyl-1,4,5,6-tetrahydropyridin-3-yl)prop-2-en-1-one] | 328 nm | 24907 M⁻¹ cm⁻¹ | – |
| CC1(C)CCN(C(C)(C)C)C=C1C(=O)/C=C/c1ccccc1 [Compound 155, (E)-1-(1-(tert-butyl)-4,4-dimethyl-1,4,5,6-tetrahydropyridin-3-yl)-3-phenylprop-2-en-1-one] | 360 nm | 23198 M⁻¹ cm⁻¹ | – |
| CC1(C)CCN(C(C)(C)C)C=C1C(=O)c1ccc(Br)cc1 [Compound 156, (4-bromophenyl)(1-(tert-butyl)-4,4-dimethyl-1,4,5,6-tetrahydropyridin-3-yl)methanone] | 317 nm | 27506 M⁻¹ cm⁻¹ | – |
| CC1(C)CCN(C(C)(C)C)C=C1C(=O)CCCCCCCCC(=O)C1=CN(C(C)(C)C)CCC1(C)C [Compound 166, 1,10-bis(1-(tert-butyl)-4,4-dimethyl-1,4,5,6-tetrahydropyridin-3-yl)decane-1,10-dione] | 307 nm | 54797 M⁻¹ cm⁻¹ | > 54000 |
| CC1(C)CCN(C(C)(C)C)C=C1C(=O)C1=CN(C(C)(C)C)CCC1(C)C [Compound 167, bis(1-(tert-butyl)-4,4-dimethyl-1,4,5,6-tetrahydropyridin-3-yl)methanone] | 305 nm | 15425 M⁻¹ cm⁻¹ | – |
| CC1(C)CCN(C(C)(C)C)C=C1C(=O)COc1ccccc1 [Compound 168, 1-(1-(tert-butyl)-4,4-dimethyl-1,4,5,6-tetrahydropyridin-3-yl)-2-phenoxyethanone] | 313 nm | 26154 M⁻¹ cm⁻¹ | – |
| CC1(C)CCN(C(C)(C)C)C=C1C(=O)c1ccncc1 [Compound 169, (1-(tert-butyl)-4,4-dimethyl-1,4,5,6-tetrahydropyridin-3-yl)(pyridin-4-yl)methanone] | 316 nm | 23556 M⁻¹ cm⁻¹ | – |
| CC1(C)CCN(C(C)(C)C)C=C1C(=O)CC(=O)c1ccccc1 [Compound 170, 1-(1-(tert-butyl)-4,4-dimethyl-1,4,5,6-tetrahydropyridin-3-yl)-3-phenylpropane-1,3-dione] | 396 nm and 309 nm | – | – |
| COc1ccc(N2C=C(C(=O)C3CCCC3=O)C(C)(C)CC2)cc1 (centres unmarked) [Compound 171, 2-(1-(4-methoxyphenyl)-4,4-dimethyl-1,4,5,6-tetrahydropyridine-3-carbonyl)cyclopentanone] | 332 nm | 30675 M⁻¹ cm⁻¹ | – |
| Cc1ccc(N2C=C(C(=O)CCCCCCCCC(=O)C3=CN(c4ccc(C)cc4)CCC3(C)C)C(C)(C)CC2)cc1 [Compound 172, 1,10-bis(4,4-dimethyl-1-(p-tolyl)-1,4,5,6-tetrahydropyridin-3-yl)decane-1,10-dione] | 328 nm | 52737 M⁻¹ cm⁻¹ | > 52000 |
| COc1ccc(N2C=C(C(=O)COc3ccccc3)C(C)(C)CC2)cc1 [Compound 173, 1-(1-(4-methoxyphenyl)-4,4-dimethyl-1,4,5,6-tetrahydropyridine-3-yl)-2-phenoxyethanone] | 339 nm | 26633 M⁻¹ cm⁻¹ | – |
